Measured values reported in patent US6664397B1, “Use of (+)mefloquine for the treatment of malaria” (Vernalis Research Limited, priority 1997, dated 2003).

Key:
travellers = conditions: 3851 travellers surveyed, prophylactic use; cited from earlier work
Plasmodium falciparum = conditions: Karle et al. 1993; cited from earlier work
[1] = target: bovine striatal adenosine receptors (non-selective); conditions: displacement of [3H]-NECA
mice [2] = test: Irwin screen of overt physiological and behavioral effects in mice; conditions: for reduced activity, unkempt appearance, hunched body posture (late effects): high dose, daily p.o. dosing, about five days
[3] = target: T1, human recombinant (HEK-293) adenosine A3 receptors (Homo sapiens, UniProt P0DMS8); conditions: comparative literature data for reference ligands; cited from earlier work
T1 construct: expressed in transfected cells; host or cells: HEK-293
T1 sequence (P0DMS8 1-318): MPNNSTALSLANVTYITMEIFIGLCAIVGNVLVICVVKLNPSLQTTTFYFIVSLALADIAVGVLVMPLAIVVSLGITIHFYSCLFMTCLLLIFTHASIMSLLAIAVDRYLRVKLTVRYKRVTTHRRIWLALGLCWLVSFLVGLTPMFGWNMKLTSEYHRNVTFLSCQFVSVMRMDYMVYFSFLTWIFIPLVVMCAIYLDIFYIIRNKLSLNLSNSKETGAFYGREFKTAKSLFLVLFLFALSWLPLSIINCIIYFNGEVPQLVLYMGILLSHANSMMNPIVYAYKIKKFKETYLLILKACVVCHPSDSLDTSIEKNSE

[4] = target: T2, adenosine A2A receptors endogenously expressed in PC-12 cells (Rattus norvegicus, UniProt P30543); test: Agonist-induced increase in extracellular acidification rate (ECAR) in PC-12 cells, cytosensor microphysiometer; format: cell-based
T2 construct: PC12 cells endogenously express adenosine A2A receptors; host or cells: PC-12 cells
Method: PC-12 cells (purchased from ECACC) were maintained in RPMI 1640 media (Sigma) supplemented with 2 mM L-glutamine and 10% FCS in a controlled environment of 5% CO2, 95% humidity at 37° C.
On the day of the assay the cells were gently harvested and centrifuged at 700 RPM for 10 min. The supernatant was discarded and the pellet re-suspended to a final density of approx. 1×10^6 cells/ml in modified RPMI 1640 media. 600 μl of this suspension was mixed with 200 μl of molten agarose cell entrapment media (Molecular Devices) pre-incubated to 37° C. The cell suspension was returned to the incubator for a further 10 minutes for equilibration. 10 μl of this cell agarose suspension was spotted onto the middle of the capsule insert well and allowed to set before being placed in the sensor chambers in the cytosensor® microphysiometer. […]
Agonist concentration curves were constructed by exposing the cells to increasing concentrations of agonist for a total exposure time of approximately 1 min 53 sec. Agonist concentration curves in the presence of antagonists were performed following pre-incubation of the cells to the antagonists for at least 20 min prior to agonist exposure (in the presence of the fixed antagonist concentration) Baseline acidification rates were normalised to 100%, and all responses were calculated as a % increase over normalised baseline. […]

mice [5] = test: Potentiation of pentylenetetrazole-induced seizures (proconvulsant effect) in mice; conditions: 300 mg/kg p.o., 24 hrs after a single dose

T2 sequence (P30543 whole entry): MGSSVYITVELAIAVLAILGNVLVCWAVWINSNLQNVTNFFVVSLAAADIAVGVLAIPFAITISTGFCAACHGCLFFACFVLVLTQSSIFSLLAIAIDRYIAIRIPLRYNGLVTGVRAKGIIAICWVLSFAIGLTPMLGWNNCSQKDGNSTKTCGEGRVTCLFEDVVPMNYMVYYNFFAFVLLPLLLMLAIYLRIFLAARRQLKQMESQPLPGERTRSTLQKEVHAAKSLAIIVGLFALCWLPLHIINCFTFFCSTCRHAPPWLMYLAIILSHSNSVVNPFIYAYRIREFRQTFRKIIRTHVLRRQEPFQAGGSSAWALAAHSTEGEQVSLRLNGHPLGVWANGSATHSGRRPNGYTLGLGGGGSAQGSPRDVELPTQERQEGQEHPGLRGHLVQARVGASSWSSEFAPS

SMILES	Ki [1]	reduced activity, unkempt appearance, hunched body posture (late effects) (mice [2])	Ki [3]	other results
O[C@H](c1cc(C(F)(F)F)nc2c(C(F)(F)F)cccc12)[C@@H]1CCCCN1 (racemic) [mefloquine, (R*,S*)-(±)-α-2-Piperidinyl-2,8-bis(trifluoromethyl)-4-quinolinemethanol]				adverse neuropsychiatric events compared with proguanil plus chloroquine (travellers): significant excess of adverse neuropsychiatric events
O[C@H](c1cc(C(F)(F)F)nc2c(C(F)(F)F)cccc12)[C@@H]1CCCCN1 [(+)-enantiomer, (+)-(11R,2′S)-α-2-piperidinyl-2,8-bis(trifluoromethyl)-4-quinolinemethanol]	38 µM	these effects only became apparent after 5-6 days, and did not include seizures		factor by which the (+)-enantiomer was more potent than the (−)-enantiomer (Plasmodium falciparum): 1.69-1.81
Nc1nc(NCCc2ccc(O)cc2)nc2nc(-c3ccco3)nn12 [ZM241385]			151 µM	
CNC(=O)[C@H]1O[C@@H](n2cnc3c(N)ncnc32)[C@H](O)[C@@H]1O [MECA, 5′-N-methylcarboxamidoadenosine, reference compound]	0.058 µM			
OC[C@H]1O[C@@H](n2cnc3c(NC4CCCCC4)ncnc32)[C@H](O)[C@@H]1O [CHA]			7.7 µM	
O[C@@H](c1cc(C(F)(F)F)nc2c(C(F)(F)F)cccc12)[C@H]1CCCCN1 [(−)-enantiomer, (−)-(11S,2′R)-α-2-piperidinyl-2,8-bis(trifluoromethyl)-4-quinolinemethanol]	0.083 µM	showed reduced activity, unkempt appearance and assumed a hunched body posture		effect on the CGS 21680-induced increase in ECAR ([4]; agonist CGS 21680, FIG. 6): specific to adenosine A2A receptors; effect on the NECA-induced increase in ECAR ([4]; agonist NECA, FIG. 5): binds to adenosine receptors as an antagonist; behavioral effects twenty-four hours after the first dose (mice [2]; 300 mg/kg p.o., 24 hours): difficult to handle and displayed aggression toward cage-mates; qualitative behavioral difference between the enantiomers (mice [2]; daily dosing 30, 100, 300 mg/kg p.o.): appearing more potent in eliciting spontaneous seizures, irritability and aggressiveness; latency to onset of clonic seizures induced by infusion of pentylenetetrazole (PTZ) (mice [5]): significantly reduced the latency to onset of clonic seizures
